Legend:
[1] = test system: Spleen cells from BDF1 female mice; assay: Mitogenesis Assay for Immunosuppressive Activity (concanavalin A-stimulated spleen cells, 3H-thymidine); format: cell-based; conditions: Concanavalin A (5 μg/ml), 72 hours
Protocol: Spleen cells from BDF1 female mice were established in RPMI with 10% fetal calf serum at 5×10^6 /ml. One hundred […] aliquots of this suspension (5×10^5 cells) were dispensed into 96-well round-bottomed microtiter plates (Linbro, Flow Laboratories). Concanavalin A (5 μg/ml) was added as the mitogenic stimulus, and the final volume in the microtiter wells was adjusted to 200 μL with RPMI. Cell cultures were incubated for 72 hours at 37 degrees C. in a 5% CO2 atmosphere and pulsed with 0.5μ Ci ^3 H-thymidine (specific activity […]) for the last 18 hour culture. The cells were harvested on an automated multiple sample harvester and cell-associated radioactivity counted in a Beckman liquid scintillation counter. The results are expressed as the mean values derived from quadruplicate measurements. Cell viability was determined by trypan blue exclusion after 72 hours of incubation. Compounds to be tested were added to the microtiter plates at the appropriate dilutions prior to the addition of cells.

Saccharomyces cerevisiae = assay: Assay for Antifungal Activity (yeast agar well zone of inhibition); format: cell-based; conditions: 48 hours
Protocol: Yeast organisms (Saccharomyces cerevisiae) in logarithmic growth were plated on complete agar medium (YPD). The compound was dissolved in an appropriate aqueous or organic solvent and placed in wells punched in the agar. Plates were incubated for 48 hours and zones of inhibition were measured.
IC12^(nM) refers to the concentration of drug in the antifungal assay which produces a 12 mm zone of inhibition.

CO[C@H]1C[C@@H]2CC[C@@H](C)C(O)(CC(=O)N3CCCC[C@H]3C(=O)O[C@H]([C@H](C)C[C@@H]3CC[C@@H](O)[C@H](OC)C3)CC(=O)[C@H](C)/C=C(\C)[C@@H](O)[C@@H](OC)C(=O)[C@H](C)C[C@H](C)/C=C/C=C/C=C/1C)O2 [14-methylene rapamycin]
immunosuppressive / immunomodulatory activity (in words) [1]: has both antifungal and immunomodulatory activity
IC50 ([1]; Mus musculus, 37 degrees C., 3H-thymidine): 15 nM
IC (12 mm zone of inhibition) (Saccharomyces cerevisiae; Saccharomyces cerevisiae on YPD agar, read-out: Yeast IC12 (concentration of drug in the antifungal assay which produces a 12 mm zone of inhibition)): 0.013 µM
antifungal activity (in words) (Saccharomyces cerevisiae; Saccharomyces cerevisiae): has both antifungal and immunomodulatory activity
